Like-named read-outs stand apart in the source and are kept apart here.
Experiment: Shelf stability test (accelerating test at 80° C.)
Type: physicochemical
Procedure: A shelf stability test of glabrene, glabridin, glabrol and 4′-O-methylglabridin in the above MCT solution was carried out as an accelerating test at 80° C. The MCT solution was kept at 80° C. in a water bath, and the contents of glabrene, glabridin, glabrol and 4′-O-methylglabridin were determined after storage for 1, 3 and 5 hours respectively. The shelf stability was expressed in terms of the ratio of the content after storage to the content before storage, assuming that the content of each compound before storage was 100%.
A shelf stability test of the hydrophobic licorice extract in Comparative Example 1 was carried out in an analogous manner.
A shelf stability test of the ethanol solution in Comparative Example 2 was carried out in an analogous manner.

CC1(C)C=Cc2c(ccc3c2OC[C@@H](c2ccc(O)cc2O)C3)O1 [Compound 2, glabridin]
Shelf stability (ratio of content after storage to content before storage) (Ethanol solution (Comparative Example 2), 80° C., after 1 hour): 96%
Shelf stability (ratio of content after storage to content before storage) (Ethanol solution (Comparative Example 2), 80° C., after 3 hour): 94%
Shelf stability (ratio of content after storage to content before storage) (Ethanol solution (Comparative Example 2), 80° C., after 5 hour): 93%
Shelf stability (ratio of content after storage to content before storage) (Ethanol solution (Comparative Example 2), 80° C., at the time of start (set to 100%)): 100%
Shelf stability (ratio of content after storage to content before storage) (Hydrophobic licorice extract (Comparative Example 1), 80° C., after 1 hour): 91%
Shelf stability (ratio of content after storage to content before storage) (Hydrophobic licorice extract (Comparative Example 1), 80° C., after 3 hours): 88%
Shelf stability (ratio of content after storage to content before storage) (Hydrophobic licorice extract (Comparative Example 1), 80° C., after 5 hours): 86%
Shelf stability (ratio of content after storage to content before storage) (Hydrophobic licorice extract (Comparative Example 1), 80° C., at the time of start (set to 100%)): 100%
Shelf stability (ratio of content after storage to content before storage) (MCT solution (Example 1), 80° C., after 1 hour): 100%
Shelf stability (ratio of content after storage to content before storage) (MCT solution (Example 1), 80° C., after 3 hours): 101%
Shelf stability (ratio of content after storage to content before storage) (MCT solution (Example 1), 80° C., after 5 hours): 97%
Shelf stability (ratio of content after storage to content before storage) (MCT solution (Example 1), 80° C., at the time of start (set to 100%)): 100%
Stability during storage (in words) (in the ethanol solution, 80° C.): unstable
Stability during storage (in words) (in the hydrophobic licorice extract, 80° C.): unstable

COc1ccc([C@@H]2COc3c(ccc4c3C=CC(C)(C)O4)C2)c(O)c1 [Compound 4, 4′-O-methylglabridin]
Shelf stability (ratio of content after storage to content before storage): 100%
Stability during storage (in words): stable

CC1(C)C=Cc2c(O)ccc(C3=Cc4ccc(O)cc4OC3)c2O1 [Compound 1, glabrene]
Shelf stability (ratio of content after storage to content before storage) (0 h): 100%

CC(C)=CCc1cc([C@@H]2CC(=O)c3ccc(O)c(CC=C(C)C)c3O2)ccc1O [Compound 3, glabrol]
Stability during storage (in words): stable
Shelf stability (ratio of content after storage to content before storage) (0 h): 100%
